From PMC10141580, “Cyclic Dichalcogenides Extend the Reach of Bioreductive Prodrugs to Harness Thiol/Disulfide Oxidoreductases: Applications to seco-Duocarmycins Targeting the Thioredoxin System” (ACS Central Science, 2023)
Where two headings read alike, the source gives them in different places.

Tested on: panel of 140 standard cancer cell lines
Experiment: ProliFiler-140 cancer cell line screen (CellTiterGlo, 72 h)
Type: cell-based
Settings: read-out: IC50 [M] (ProliFiler-140)
Protocol: Incubations were performed for 72 h before automated viability readout with CellTiterGlo (Figure 8).
End of Figure S11 (part 5 of 5): ProliFiler-140 cancer cell line screening for cytotoxicity of the prodrugs.
8-data-point dose response curves from CellTiter-Glo® viability readout.
ProliFiler-140 cell line panel part V

**Q.** With `COc1cccc2c1C(=O)c1c(O)c3c(c(O)c1C2=O)C[C@@](O)(C(=O)CO)C[C@@H]3O[C@H]1C[C@H](N)[C@H](O)[C@H](C)O1` [doxorubicin, reference compound] as the compound, how does the IC50 (MCAS (Ovary), listed as Dox) read?
**A.** 1.13e-07 M

**Q.** What about the IC50 (MCAS (Ovary)) of the same compound?
**A.** 1.1e-07 M

**Q.** What about the IC50 (MDA MB 435 (Skin), listed as Dox) of the same compound?
**A.** 4.83e-07 M

**Q.** And the IC50 (MDA-MB-468 (Breast), listed as Dox)?
**A.** 4.71e-08 M

**Q.** What about the IC50 (MEC-1 (Blood), listed as Dox) of the same compound?
**A.** 7.33e-08 M

**Q.** And the IC50 (MKN-1 (Stomach), listed as Dox)?
**A.** 5.25e-08 M

**Q.** What about the IC50 (MOLM-13 (Blood), listed as Dox) of the same compound?
**A.** 2.12e-08 M

**Q.** And the IC50 (MV4-11 (Blood), listed as Dox)?
**A.** 4.26e-09 M

**Q.** And the IC50 (Mia PaCA 2 (Pancreas), listed as Dox)?
**A.** 7.4e-08 M

**Q.** And the IC50 (NCI-H82 (Lung), listed as Dox)?
**A.** 6.24e-07 M

**Q.** And the IC50 (NCI-H292 (Lung), listed as Dox)?
**A.** 7.17e-08 M

**Q.** And the IC50 (NCI-H838 (Lung), listed as Dox)?
**A.** 1.51e-07 M

**Q.** And the IC50 (NCI-H1563 (Lung), listed as Dox)?
**A.** 5.43e-07 M

**Q.** And the IC50 (NCI-H1573 (Lung), listed as Dox)?
**A.** 2.97e-06 M

**Q.** What about the IC50 (NCI-H1703 (Lung), listed as Dox) of the same compound?
**A.** 9.24e-08 M

**Q.** And the IC50 (NCI-H1838 (Lung), listed as Dox)?
**A.** 2.52e-07 M

**Q.** What about the IC50 (NCI-H2110 (Lung), listed as Dox) of the same compound?
**A.** 3.55e-08 M

**Q.** And the IC50 (NCI-H2110, NCI-H2110 (Lung))?
**A.** 3.6e-08 M

**Q.** And the IC50 (NCI-H2286 (Lung), listed as Dox)?
**A.** 4.39e-08 M

**Q.** And the IC50 (OCI-AML5 (Blood), listed as Dox)?
**A.** 3.09e-08 M

**Q.** And the IC50 (OCI-LY19 (Blood), listed as Dox)?
**A.** 5.5e-09 M

**Q.** What about the IC50 (OPM-2 (Blood), listed as Dox) of the same compound?
**A.** 2.4e-07 M

**Q.** And the IC50 (OV56, OV56 (Ovary))?
**A.** 2.02e-07 M

**Q.** What about the IC50 (OVCAR-3 (Ovary), listed as Dox) of the same compound?
**A.** 3.73e-07 M

**Q.** What about the IC50 (OVK18 (Ovary), listed as Dox) of the same compound?
**A.** 3.4e-08 M

**Q.** What about the IC50 (OVK18, OVK18 (Ovary)) of the same compound?
**A.** 3.42e-08 M

**Q.** And the IC50 (P31/FUJ (Blood), listed as Dox)?
**A.** 1.02e-07 M

**Q.** What about the IC50 (PANC-1 (Pancreas), listed as Dox) of the same compound?
**A.** 8.01e-07 M

**Q.** What about the IC50 (PC3 (Prostate), listed as Dox) of the same compound?
**A.** 7.4e-07 M

**Q.** And the IC50 (PC3 (Prostate))?
**A.** 7.38e-07 M

**Q.** And the IC50 (PC-9 (Lung), listed as Dox)?
**A.** 1.92e-07 M

**Q.** What about the IC50 (PC-9 (Lung)) of the same compound?
**A.** 1.9e-07 M

**Q.** What about the IC50 (RERF-LC-Ad2, RERF-LC-Ad2 (Lung)) of the same compound?
**A.** 4.6e-07 M

**Q.** And the IC50 (RERF-LC-MS (Lung), listed as Dox)?
**A.** 1.7e-07 M

**Q.** What about the IC50 (RERF-LC-MS (Lung)) of the same compound?
**A.** 1.74e-07 M

**Q.** What about the IC50 (RKO (Colon), listed as Dox) of the same compound?
**A.** 9.9e-08 M

**Q.** And the IC50 (RKO (Colon))?
**A.** 9.86e-08 M

**Q.** And the IC50 (RPMI 8226 (Blood), listed as Dox)?
**A.** 8.8e-08 M

**Q.** What about the IC50 (SCH (Stomach), listed as Dox) of the same compound?
**A.** 1.38e-07 M

**Q.** What about the IC50 (SCH (Stomach)) of the same compound?
**A.** 1.4e-07 M

**Q.** And the IC50 (SK-BR-3 (Breast), listed as Dox)?
**A.** 1.28e-07 M

**Q.** And the IC50 (SK-LU-1 (Lung), listed as Dox)?
**A.** 2.67e-07 M

**Q.** What about the IC50 (SK-MEL-3 (Skin), listed as Dox) of the same compound?
**A.** 5.12e-07 M

**Q.** What about the IC50 (SK-N-FI (Brain), listed as Dox) of the same compound?
**A.** 1.4e-06 M

**Q.** And the IC50 (SK-N-MC (Brain), listed as Dox)?
**A.** 1.47e-08 M

**Q.** What about the IC50 (SK-N-SH (Brain), listed as Dox) of the same compound?
**A.** 9.82e-08 M

**Q.** What about the IC50 (SK-OV3 (Ovary), listed as Dox) of the same compound?
**A.** 1.8e-07 M

**Q.** And the IC50 (SNU-1 (Stomach), listed as Dox)?
**A.** 5.88e-08 M

**Q.** What about the IC50 (SNU-216, SNU-216 (Stomach)) of the same compound?
**A.** 3.9e-07 M

**Q.** And the IC50 (SNU-840, SNU840 (Ovary))?
**A.** 1.33e-07 M

**Q.** What about the IC50 (SU-DHL-5 (Blood), listed as Dox) of the same compound?
**A.** 9.15e-09 M

**Q.** And the IC50 (SW-1783 (Brain), listed as Dox)?
**A.** 3e-07 M

**Q.** And the IC50 (T84 (Colon), listed as Dox)?
**A.** 1.4e-06 M

**Q.** What about the IC50 (T84 (Colon)) of the same compound?
**A.** 1.35e-06 M

**Q.** What about the IC50 (T-47D (Breast), listed as Dox) of the same compound?
**A.** 4.35e-07 M

**Q.** What about the IC50 (U87MG (Brain), listed as Dox) of the same compound?
**A.** 1.62e-07 M

**Q.** What about the IC50 (U118MG (Brain), listed as Dox) of the same compound?
**A.** 2.6e-07 M

**Q.** And the IC50 (U251MG (Brain), listed as Dox)?
**A.** 7.84e-07 M
